The values below are quoted from earlier work in patent US20140364417A1, “METHOD OF TREATING ATRIAL FIBRILLATION” (Gilead Sciences, Inc., priority 2013, published 2014).

SMILES strings stand for the structures.

In data set [1] the test system is atrial and ventricular myocardium. Conditions: cited from earlier work.
For data set [2], the system named is AV node and ventricular Purkinje system. Conditions: ivabradine 0.2 mg/kg, i.v., cited from earlier work.

For `COc1ccccc1OCC(O)CN1CCN(CC(=O)Nc2c(C)cccc2C)CC1` (racemic) [ranolazine, (±)-N-(2,6-dimethylphenyl)-4-[2-hydroxy-3-(2-methoxyphenoxy)-propyl]-1-piperazineacetamide], the “dominant frequency of AF” value in data set [1] (Kumar et al. 2009) is reported as “capable of reducing”. In data set [1] (clinically relevant concentrations (5 and 10 μM)), the “APD in ventricular myocardium” value is on record as “minimal or no effect”. The “duration of the action potential (APD90) in atria” value in data set [1] (published studies) is given as “prolongs”.

Turning to `COc1cc2c(cc1OC)CC(=O)N(CCCN(C)C[C@H]1Cc3cc(OC)c(OC)cc31)CC2` [ivabradine, 3-{3-[{[(7S)-3,4-dimethoxybicyclo[4.2.0]octa-1,3,5-trien-7-yl]methyll}-(methyl)amino]propyl}-7,8-dimethoxy-1,3,4,5-tetrahydro-2H-3-benzapenin-2-one], the heart rate result in data set [2] (Thollon 1997, Camm and Lau 2003) is given as “lowers heart rate”. Further, in data set [2], the “conductivity, refractoriness or repolarization duration of AV node and ventricular Purkinje system” value was “without causing changes”.
